Results from PubChem BioAssay AID248 (DTP/NCI, 2004).
“And” between values parts separate entries of the source, which are not always exact repeats. Equal values may be shown once. Inconclusive results and toxic doses are left out.

Test system: L1210 leukemia ip in BDF1 mice, survival T/C
Test: NCI In Vivo Anticancer Drug Screen. Data for tumor model L1210 Leukemia (intraperitoneal) in B6D2F1 (BDF1) mice
Conditions: endpoint: mean survival time, higher = longer survival
Method in brief: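 Each compound was tested against a transplantable tumor grown in mice. The endpoint was survival, with treated animals benchmarked against vehicle controls as a simple ratio.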

[1] = dose: 12.5 mg/kg/injection, schedule: Q04DX003 (ip), vehicle: saline
[2] = dose: 25.0 mg/kg/injection, schedule: Q04DX003 (ip), vehicle: saline
[3] = dose: 50.0 mg/kg/injection, schedule: Q04DX003 (ip), vehicle: saline
[4] = dose: 100.0 mg/kg/injection, schedule: Q04DX003 (ip), vehicle: saline with Tween-80
[5] = dose: 200.0 mg/kg/injection, schedule: Q04DX003 (ip), vehicle: saline with Tween-80
[6] = dose: 400.0 mg/kg/injection, schedule: Q04DX003 (ip), vehicle: saline with Tween-80
[7] = dose: 100.0 mg/kg/injection, schedule: Q01DX009 (ip), vehicle: Klucel (hydroxypropylcellulose) (HPC)
[8] = dose: 100.0 mg/kg/injection, schedule: Q04DX003 (ip), vehicle: Klucel (hydroxypropylcellulose) (HPC)
[9] = dose: 200.0 mg/kg/injection, schedule: Q01DX009 (ip), vehicle: Klucel (hydroxypropylcellulose) (HPC)
[10] = dose: 200.0 mg/kg/injection, schedule: Q04DX003 (ip), vehicle: Klucel (hydroxypropylcellulose) (HPC)
[11] = dose: 400.0 mg/kg/injection, schedule: Q01DX009 (ip), vehicle: Klucel (hydroxypropylcellulose) (HPC)
[12] = dose: 400.0 mg/kg/injection, schedule: Q04DX003 (ip), vehicle: Klucel (hydroxypropylcellulose) (HPC)
[13] = dose: 100.0 mg/kg/injection, schedule: Q01DX001 (ip), vehicle: saline
[14] = dose: 200.0 mg/kg/injection, schedule: Q01DX001 (ip), vehicle: saline
[15] = dose: 400.0 mg/kg/injection, schedule: Q01DX001 (ip), vehicle: saline
[16] = dose: 50.0 mg/kg/injection, schedule: Q01DX001 (ip), vehicle: saline
[17] = dose: 25.0 mg/kg/injection, schedule: Q01DX009 (ip), vehicle: saline
[18] = dose: 100.0 mg/kg/injection, schedule: Q01DX009 (ip), vehicle: saline
[19] = dose: 200.0 mg/kg/injection, schedule: Q01DX009 (ip), vehicle: saline

`BrCc1cc(CBr)c(CBr)cc1CBr` was tested, and the T/C (dose: 12.5 mg/kg/injection, schedule: Q01DX009 (ip), vehicle: acetone) was 108 % of control, the T/C [1] was 97 % of control and the T/C [2] was 98 % of control and 114 % of control. The T/C [3] was 95 % of control.

In the case of `O=C(Nc1ccc(I)cc1)c1cc([N+](=O)[O-])ccc1O`, the T/C (dose: 17.0 mg/kg/injection, schedule: Q02DX010 (ip), vehicle: carboxymethylcellulose (CMC)) is reported as 99 % of control, the T/C (dose: 34.0 mg/kg/injection, schedule: Q02DX010 (ip), vehicle: carboxymethylcellulose (CMC)) is reported as 103 % of control and the T/C (dose: 68.0 mg/kg/injection, schedule: Q02DX010 (ip), vehicle: carboxymethylcellulose (CMC)) is reported as 97 % of control. For the same compound, the T/C (dose: 136.0 mg/kg/injection, schedule: Q02DX010 (ip), vehicle: carboxymethylcellulose (CMC)) was 95 % of control and the T/C (dose: 272.0 mg/kg/injection, schedule: Q02DX010 (ip), vehicle: carboxymethylcellulose (CMC)) was 98 % of control.

For `S=c1nc[nH]c2[nH]ncc12`, the T/C (dose: 100.0 mg/kg/injection, schedule: Q01DX001 (ip), vehicle: carboxymethylcellulose (CMC)) was 108 % of control, the T/C (dose: 200.0 mg/kg/injection, schedule: Q01DX001 (ip), vehicle: carboxymethylcellulose (CMC)) was 93 % of control and the T/C (dose: 400.0 mg/kg/injection, schedule: Q01DX001 (ip), vehicle: carboxymethylcellulose (CMC)) was 93 % of control.

For `CCOC(=O)c1cnc(SC)nc1OCC`, the T/C (dose: 12.0 mg/kg/injection, schedule: Q01DX001 (ip), vehicle: Klucel (hydroxypropylcellulose) (HPC)) was 93 % of control and the T/C (dose: 25.0 mg/kg/injection, schedule: Q01DX001 (ip), vehicle: Klucel (hydroxypropylcellulose) (HPC)) was 104 % of control.

`O=C(O)CCc1cc([N+](=O)[O-])c(O)c([N+](=O)[O-])c1` was tested, and the T/C [4] was 96 % of control, the T/C [5] was 101 % of control and the T/C [6] was 99 % of control.

For `Cc1ccc(NC(=O)Nc2cccc3ccccc23)cc1Cl`, the T/C [7] was 99 % of control, the T/C [8] was 91 % of control and the T/C [9] was 94 % of control. The T/C [10] was 86 % of control, the T/C [11] was 97 % of control and the T/C [12] was 90 % of control.

In the case of `CCCCCCCCCCOC(=O)C[n+]1cccc(C(=O)Nc2ccc(Cl)cc2)c1`, the T/C [1] is reported as 97 % of control, the T/C [2] is reported as 105 % of control and the T/C [3] is reported as 90 % of control.

`O=C(O)c1cccc2c1-c1ccccc1/C2=N\O` was tested, and the T/C [13] was 100 % of control, the T/C [14] was 110 % of control and the T/C [15] was 104 % of control.

In the case of `COc1cc(N(CCCl)CCCl)ccc1C=Nc1ccc2c(c1)nc(C)n2C`, the T/C (dose: 68.8 mg/kg/injection, schedule: Q04DX002 (ip), vehicle: Klucel (hydroxypropylcellulose) (HPC)) is reported as 104 % of control, the T/C (dose: 137.5 mg/kg/injection, schedule: Q04DX002 (ip), vehicle: Klucel (hydroxypropylcellulose) (HPC)) is reported as 101 % of control and the T/C (dose: 275.0 mg/kg/injection, schedule: Q04DX002 (ip), vehicle: Klucel (hydroxypropylcellulose) (HPC)) is reported as 117 % of control.

`N#CN1CCCC1` was tested, and the T/C (dose: 44.0 mg/kg/injection, schedule: Q01DX Z (ip), vehicle: saline) was 98 % of control and the T/C (dose: 66.0 mg/kg/injection, schedule: Q01DX Z (ip), vehicle: saline) was 102 % of control.

In the case of `OC(CN1CCCCC1)c1nc2ccccc2c2ccccc12` (configuration not stated), the T/C [16] is reported as 102 % of control and the T/C [13] is reported as 94 % of control.

For `Cc1cc(Cl)ccc1NC(=O)c1cccc(C(=O)Nc2ccc(Cl)cc2C)c1`, the T/C [7] was 97 % of control, the T/C [8] was 98 % of control and the T/C [9] was 92 % of control. The T/C [10] was 90 % of control, the T/C [11] was 87 % of control and the T/C [12] was 93 % of control.

With `CN(Cc1ccccc1)C(=O)NC1CCCCC1` the T/C [17] was 100 % of control and 101 % of control, the T/C (dose: 50.0 mg/kg/injection, schedule: Q01DX009 (ip), vehicle: saline) was 100 % of control and 101 % of control and the T/C (dose: 100.0 mg/kg/injection, schedule: Q01DX009 (ip), vehicle: saline with Tween-80) was 102 % of control. For the same compound, the T/C [18] was 97 % of control and 100 % of control, the T/C (dose: 100.0 mg/kg/injection, schedule: Q04DX002 (ip), vehicle: saline with Tween-80) was 94 % of control and 96 % of control and the T/C [4] was 101 % of control. The T/C (dose: 200.0 mg/kg/injection, schedule: Q01DX009 (ip), vehicle: saline with Tween-80) was 94 % of control and 105 % of control, the T/C [19] was 96 % of control and 97 % of control and the T/C (dose: 200.0 mg/kg/injection, schedule: Q04DX002 (ip), vehicle: saline with Tween-80) was 96 % of control and 100 % of control. For the same compound, the T/C [5] was 102 % of control, the T/C (dose: 400.0 mg/kg/injection, schedule: Q01DX009 (ip), vehicle: saline with Tween-80) was 95 % of control and 105 % of control and the T/C (dose: 400.0 mg/kg/injection, schedule: Q04DX002 (ip), vehicle: saline with Tween-80) was 100 % of control and 92 % of control. The T/C [6] was 95 % of control.

For `O=C1OCC(O)C(O)C(O)C(O)C1O` (configuration not stated), the T/C [18] was 102 % of control, the T/C [19] was 100 % of control and the T/C (dose: 400.0 mg/kg/injection, schedule: Q01DX009 (ip), vehicle: saline) was 102 % of control.

With `CC(=O)Nc1ccc(OC(=O)Nc2ccc(F)c([N+](=O)[O-])c2)cc1` the T/C [7] was 118 % of control and the T/C [9] was 112 % of control.

With `O=P(N1CCOCC1)(N1CC1)N1CC1` the T/C (dose: 2.3 mg/kg/injection, schedule: Q01DX015 (ip), vehicle: saline) was 103 % of control, the T/C (dose: 3.5 mg/kg/injection, schedule: Q01DX015 (ip), vehicle: saline) was 108 % of control and the T/C (dose: 5.3 mg/kg/injection, schedule: Q01DX015 (ip), vehicle: saline) was 114 % of control. The T/C (dose: 6.2 mg/kg/injection, schedule: Q01DX001 (ip), vehicle: saline) was 105 % of control, the T/C (dose: 9.3 mg/kg/injection, schedule: Q01DX001 (ip), vehicle: saline) was 107 % of control and the T/C (dose: 12.5 mg/kg/injection, schedule: Q01DX009 (ip), vehicle: saline) was 196 % of control. For the same compound, the T/C (dose: 14.0 mg/kg/injection, schedule: Q01DX001 (ip), vehicle: saline) was 112 % of control, the T/C (dose: 14.0 mg/kg/injection, schedule: Q01DX015 (ip), vehicle: saline) was 210 % of control and the T/C (dose: 23.0 mg/kg/injection, schedule: Q01DX015 (ip), vehicle: saline) was 246 % of control. The T/C [17] was 116 % of control, the T/C (dose: 33.0 mg/kg/injection, schedule: Q01DX001 (ip), vehicle: saline) was 157 % of control and the T/C (dose: 38.0 mg/kg/injection, schedule: Q01DX015 (ip), vehicle: saline) was 104 % of control.

`ClC1=C(Cl)C(Cl)(Cl)C(Cl)=C1Cl` was tested, and the T/C (dose: 0.25 mg/kg/injection, schedule: Q04DX002 (ip), vehicle: Klucel (hydroxypropylcellulose) (HPC)) was 103 % of control, the T/C (dose: 0.5 mg/kg/injection, schedule: Q04DX002 (ip), vehicle: Klucel (hydroxypropylcellulose) (HPC)) was 107 % of control and the T/C (dose: 1.0 mg/kg/injection, schedule: Q04DX002 (ip), vehicle: Klucel (hydroxypropylcellulose) (HPC)) was 88 % of control.

With `BrC1=C(Br)C2(Br)C(c3ccccc3)CC1(Br)C2(Br)Br` (configuration not stated) the T/C (dose: 100.0 mg/kg/injection, schedule: Q04DX003 (ip), vehicle: saline) was 92 % of control, the T/C (dose: 200.0 mg/kg/injection, schedule: Q04DX003 (ip), vehicle: saline) was 106 % of control and the T/C (dose: 400.0 mg/kg/injection, schedule: Q04DX003 (ip), vehicle: saline) was 92 % of control.

`C=COC(=O)Sc1c(Cl)c(Cl)c(Cl)c(Cl)c1Cl` was tested, and the T/C [16] was 100 % of control, the T/C [13] was 97 % of control and the T/C [14] was 103 % of control. The T/C [15] was 92 % of control.

`CC(C)=CCn1cnc2c1c(=O)n(C)c(=O)n2C` was tested, and the T/C (dose: 50.0 mg/kg/injection, schedule: Q04DX002 (ip), vehicle: Klucel (hydroxypropylcellulose) (HPC)) was 100 % of control, the T/C (dose: 100.0 mg/kg/injection, schedule: Q04DX002 (ip), vehicle: Klucel (hydroxypropylcellulose) (HPC)) was 88 % of control and the T/C (dose: 200.0 mg/kg/injection, schedule: Q04DX002 (ip), vehicle: Klucel (hydroxypropylcellulose) (HPC)) was 96 % of control.

`C(=N\N(c1ccccc1)c1ccccc1)/c1ccc(/C=N/N(c2ccccc2)c2ccccc2)cc1` was tested, and the T/C [7] was 92 % of control, the T/C [9] was 90 % of control and the T/C [11] was 96 % of control.

With `CCC1=C(C)C(C)OC(C)=C1C` (configuration not stated) (tested in a mixture with another compound) the T/C [13] was 93 % of control, the T/C [14] was 90 % of control and the T/C [15] was 93 % of control.

With `CN(C)CCCN1CCC2(CCCC(C(F)(F)F)C2)CC1` (configuration not stated) the T/C [16] was 104 % of control, the T/C [13] was 101 % of control and the T/C [14] was 104 % of control.

`O=C1c2ccccc2C(=O)N1CCOc1ccc([N+](=O)[O-])cc1Cl` was tested, and the T/C (dose: 50.0 mg/kg/injection, schedule: Q04DX003 (ip), vehicle: Klucel (hydroxypropylcellulose) (HPC)) was 102 % of control, the T/C [8] was 101 % of control and the T/C [10] was 100 % of control.
